Tested on: HCV replication
Test: Replicon Assay (Huh-lucubineo-ET cells, luciferase readout)
Type: cell-based
Conditions: Hepatitis C virus; ET (Huh-lucubineo-ET) HCV replicon cell line; luciferase activity 48-72 hours after compound addition; 6 dilutions
Outline: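 Huh-lucubineo-ET cells stably carrying a firefly luciferase-ubiquitin-neo/NS3-5B ET replicon (adaptive mutations E1202G, T1280I, K1846T) were plated 24 h before compound, then treated at 5 or 50 μM or six 3-fold dilutions. Luciferase read 48-72 h later; % inhibition vs no-compound control, EC50/TC50 from Hill-equation fit.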

Row | SMILES | EC50 [nM]
1 | Fc1cccc(-c2nc3cnn(Cc4ccc(Oc5ccc(OC(F)(F)F)cc5)nn4)cc-3n2)c1F [Compound 341, 2-(2,3-Difluoro-phenyl)-5-[6-(4-trifluoromethoxy-phenoxy)-pyridazin-3-ylmethyl]-5H-imidazo[4,5-d]pyridazine] | 6030
2 | CCOC(=O)CCc1ccc(-c2ccc(Cn3cc4nc(-c5cccc(F)c5F)nc-4cn3)nn2)cc1 [Compound 217, 3-(4-{6-[2-(2,3-Difluoro-phenyl)-imidazo[4,5-d]pyridazin-5-ylmethyl]-pyridazin-3-yl}-phenyl)-propionic acid ethyl ester] | 52000
3 | CCCOc1ccc(-c2ccc(Cn3cc4nc(-c5cccc(F)c5F)nc-4cn3)cc2[N+](=O)[O-])cc1 [Compound 260, 2-(2,3-Difluoro-phenyl)-5-(2-nitro-4′-propoxy-biphenyl-4-ylmethyl)-5H-imidazo[4,5-d]pyridazine] | 146
4 | COc1ccc(-c2ccc(Cn3cc4nc(-c5cccc(F)c5F)nc-4cn3)cn2)c(C(F)(F)F)c1 [Compound 235, 2-(2,3-Difluoro-phenyl)-5-[6-(4-methoxy-2-trifluoromethyl-phenyl)-pyridin-3-ylmethyl]-5H-imidazo[4,5-d]pyridazine] | 10
5 | Fc1cc(C(F)(F)F)ccc1-c1ccc(Cn2cc3nc(-c4cccc(F)c4F)nc-3cn2)cc1 [Compound 230, 2-(2,3-Difluoro-phenyl)-5-(2′-fluoro-4′-trifluoromethyl-biphenyl-4-ylmethyl)-5H-imidazo[4,5-d]pyridazine] | 3140
6 | Fc1cccc(-c2nc3cnn(Cc4ccc(-c5ccc(C(F)(F)F)cc5Cl)nc4)cc-3n2)c1F [Compound 237, 5-[6-(2-Chloro-4-trifluoromethyl-phenyl)-pyridin-3-ylmethyl]-2-(2,3-difluoro-phenyl)-5H-imidazo[4,5-d]pyridazine] | 119
7 | COc1ccc(NC(=O)c2ccc(Cn3cc4nc(-c5cccc(F)c5F)nc-4cn3)cc2)cc1 [Compound 274, 4-[2-(2,3-Difluoro-phenyl)-imidazo[4,5-d]pyridazin-5-ylmethyl]-N-(4-methoxy-phenyl)-benzamide] | ≥ 50000
8 | O=S(=O)(Oc1ccc(-c2ccc(Cn3cc4nc(-c5cccc(F)c5F)nc-4cn3)nn2)c(C(F)(F)F)c1)C(F)(F)F [Compound 353, Trifluoro-methanesulfonic acid 4-{6-[2-(2,3-difluoro-phenyl)-imidazo[4,5-d]pyridazin-5-ylmethyl]-pyridazin-3-yl}-3-trifluoromethyl-phenyl ester] | 1190
9 | COc1cccc(-c2ccc(Cn3cc4nc(-c5cccc(F)c5F)nc-4cn3)nn2)c1OC [Compound 202, 2-(2,3-Difluoro-phenyl)-5-[6-(2,3-dimethoxy-phenyl)-pyridazin-3-ylmethyl]-5H-imidazo[4,5-d]pyridazine] | ≥ 50000
10 | Fc1cc(C(F)(F)F)ccc1-c1ccc(Cn2cc3nc(-c4cccc(F)c4F)nc-3cn2)nc1 [Compound 254, 2-(2,3-Difluoro-phenyl)-5-[5-(2-fluoro-4-trifluoromethyl-phenyl)-pyridin-2-ylmethyl]-5H-imidazo[4,5-d]pyridazine] | ≥ 50000
11 | Fc1cccc(-c2nc3cnn(Cc4ccc(-c5ccc(OCC6CC6)cc5C(F)(F)F)nn4)cc-3n2)c1F [Compound 327, 5-[6-(4-Cyclopropylmethoxy-2-trifluoromethyl-phenyl)-pyridazin-3-ylmethyl]-2-(2,3-difluoro-phenyl)-5H-imidazo[4,5-d]pyridazine] | 54
12 | Fc1ccccc1-c1nc2cnn(Cc3ccc(OC(F)(F)F)cc3)cc-2n1 [Compound 101, 2-(2-Fluoro-phenyl)-5-(4-trifluoromethoxy-benzyl)-5H-imidazo[4,5-d]pyridazine] | ≥ 50000
13 | CC(=O)COc1ccc(-c2ccc(Cn3cc4nc(-c5cccc(F)c5F)nc-4cn3)nn2)c(C(F)(F)F)c1 [Compound 318, 1-(4-{6-[2-(2,3-Difluoro-phenyl)-imidazo[4,5-d]pyridazin-5-ylmethyl]-pyridazin-3-yl}-3-trifluoromethyl-phenoxy)-propan-2-one] | 663
14 | Fc1cccc(-c2nc3cnn(Cc4ccc(Br)cn4)cc-3n2)c1F [Compound 262, 5-(5-bromo-pyridin-2-ylmethyl)-2-(2,3-difluoro-phenyl)-5H-imidazo[4,5-d]pyridazine] | ≥ 50000
15 | CCOc1ccc(-c2ccc(Cn3cc4nc(-c5ccccc5F)nc-4cn3)nn2)c(C(F)(F)F)c1 [Compound 315, 5-[6-(4-Ethoxy-2-trifluoromethyl-phenyl)-pyridazin-3-ylmethyl]-2-(2-fluoro-phenyl)-5H-imidazo[4,5-d]pyridazine] | 20
16 | COc1ccc(-c2ccc(Cn3cc4nc(-c5cccc(F)c5F)nc-4cn3)nn2)cc1 [Compound 105, 2-(2,3-Difluoro-phenyl)-5-[6-(4-methoxy-phenyl)-pyridazin-3-ylmethyl]-5H-imidazo[4,5-d]pyridazine] | 7400
17 | Fc1ccc(COc2ccc(Cn3cc4nc(-c5cccc(F)c5F)nc-4cn3)cc2)cc1 [Compound 297, 2-(2,3-Difluoro-phenyl)-5-[4-(4-fluoro-benzyloxy)-benzyl]-5H-imidazo[4,5-d]pyridazine] | 5740

Row | SMILES | EC50 [nM]
18 | CC(C)COc1ccc(-c2ccc(Cn3cc4nc(-c5cccc(F)c5F)nc-4cn3)nn2)c(C(F)(F)F)c1 [Compound 328, 2-(2,3-Difluoro-phenyl)-5-[6-(4-isobutoxy-2-trifluoromethyl-phenyl)-pyridazin-3-ylmethyl]-5H-imidazo[4,5-d]pyridazine] | 35
19 | COc1ccc(-c2ccc(Cn3cc4nc(-c5cccc(F)c5F)nc-4cn3)c(F)c2)c(C(F)(F)F)c1 [Compound 259, 2-(2,3-Difluoro-phenyl)-5-(3-fluoro-4′-methoxy-2′-trifluoromethyl-biphenyl-4-ylmethyl)-5H-imidazo[4,5-d]pyridazine] | 20
20 | COc1ccc(-c2ccc(Cn3cc4nc(-c5cccc(F)c5F)nc-4cn3)c(-c3ccc(OC)cc3C(F)(F)F)n2)c(C(F)(F)F)c1 [Compound 252, 5-[2,6-Bis-(4-methoxy-2-trifluoromethyl-phenyl)-pyridin-3-ylmethyl]-2-(2,3-difluoro-phenyl)-5H-imidazo[4,5-d]pyridazine] | 2640
21 | CC(C)Oc1ccc(-c2ccc(Cn3cc4nc(-c5cccc(F)c5F)nc-4cn3)nn2)cc1 [Compound 209, 2-(2,3-Difluoro-phenyl)-5-[6-(4-isopropoxy-phenyl)-pyridazin-3-ylmethyl]-5H-imidazo[4,5-d]pyridazine] | ≥ 50000
22 | Fc1cccc(-c2nc3cnn(Cc4ccc(-c5ccc(-c6ccccc6)cc5C(F)(F)F)nn4)cc-3n2)c1F [Compound 205, 2-(2,3-Difluoro-phenyl)-5-[6-(3-trifluoromethyl-biphenyl-4-yl)-pyridazin-3-ylmethyl]-5H-imidazo[4,5-d]pyridazine] | 140
23 | CCCOc1ccc(-c2cnc(Cn3cc4nc(-c5cccc(F)c5F)nc-4cn3)cn2)c(C(F)(F)F)c1 [Compound 295, 2-(2,3-Difluoro-phenyl)-5-[5-(4-propoxy-2-trifluoromethyl-phenyl)-pyrazin-2-ylmethyl]-5H-imidazo[4,5-d]pyridazine] | 26
24 | Fc1cccc(-c2nc3cnn(Cc4cccc(OC(F)(F)F)c4)cc-3n2)c1F [Compound 300, 2-(2,3-Difluoro-phenyl)-5-(3-trifluoromethoxy-benzyl)-5H-imidazo[4,5-d]pyridazine] | ≥ 50000
25 | Fc1cccc(-c2nc3cnn(Cc4ccc(-c5ccc(OCC6CCOCC6)cc5C(F)(F)F)nn4)cc-3n2)c1F [Compound 320, 2-(2,3-Difluoro-phenyl)-5-{6-[4-(tetrahydro-pyran-4-ylmethoxy)-2-trifluoromethyl-phenyl]-pyridazin-3-ylmethyl}-5H-imidazo[4,5-d]pyridazine] | 1710
26 | Cc1ccc(-c2ccc(Cn3cc4nc(-c5cccc(F)c5F)nc-4cn3)c(N)n2)c(C(F)(F)F)c1 [Compound 240, 3-[2-(2,3-Difluoro-phenyl)-imidazo[4,5-d]pyridazin-5-ylmethyl]-6-(4-methyl-2-trifluoromethyl-phenyl)-pyridin-2-ylamine] | 44
27 | Fc1cccc(-c2nc3cnn(Cc4ccc(-c5ccc(C(F)(F)F)cc5)cc4)cc-3n2)c1F [Compound 225, 2-(2,3-Difluoro-phenyl)-5-(4′-trifluoromethyl-biphenyl-4-ylmethyl)-5H-imidazo[4,5-d]pyridazine] | 13700
28 | CCCOc1ccc(-c2ncc(Cn3cc4nc(-c5cccc(F)c5F)nc-4cn3)cn2)c(C(F)(F)F)c1 [Compound 363, 2-(2,3-Difluoro-phenyl)-5-[2-(4-propoxy-2-trifluoromethyl-phenyl)-pyrimidin-5-ylmethyl]-5H-imidazo[4,5-d]pyridazine] | 5
29 | CCCCc1ccc(-c2ccc(Cn3cc4nc(-c5cccc(F)c5F)nc-4cn3)nn2)cc1 [Compound 115, 5-[6-(4-Butyl-phenyl)-pyridazin-3-ylmethyl]-2-(2,3-difluoro-phenyl)-5H-imidazo[4,5-d]pyridazine] | 1470
30 | O=[N+]([O-])c1ccc(-c2ccc(Cn3cc4nc(-c5cccc(F)c5F)nc-4cn3)cn2)c(C(F)(F)F)c1 [Compound 285, 2-(2,3-Difluoro-phenyl)-5-[6-(4-nitro-2-trifluoromethyl-phenyl)-pyridin-3-ylmethyl]-5H-imidazo[4,5-d]pyridazine] | 284
31 | COc1ccc(-c2ccc(Cn3cc4nc(-c5ccccc5F)nc-4cn3)cn2)c(C(F)(F)F)c1 [Compound 212, 2-(2-Fluoro-phenyl)-5-[6-(4-methoxy-2-trifluoromethyl-phenyl)-pyridin-3-ylmethyl]-5H-imidazo[4,5-d]pyridazine] | 81
32 | COc1cccc(Cn2cc3nc(-c4cccc(F)c4F)nc-3cn2)c1 [Compound 287, 2-(2,3-Difluoro-phenyl)-5-(3-methoxy-benzyl)-5H-imidazo[4,5-d]pyridazine] | ≥ 50000
33 | Fc1cccc(-c2nc3cnn(Cc4ccc5ccccc5c4)cc-3n2)c1F [Compound 278, 2-(2,3-Difluoro-phenyl)-5-naphthalen-2-ylmethyl-5H-imidazo[4,5-d]pyridazine] | ≥ 50000

From patent US20090226398A1, “ANTI-VIRAL COMPOUNDS, COMPOSITIONS, AND METHODS OF USE” (Genelabs Technologies, Inc., priority 2008, published 2009)
